ChEMBL document CHEMBL3259526, “(11)C-labeling and preliminary evaluation of vortioxetine as a PET radioligand” (Bioorg Med Chem Lett, 2014)

How the values were obtained:
[1] = Drug uptake in Danish Landrace pig cerebellum at 124 MBq, iv after 90 mins by PET analysis; format: ADME, organism-based, Sus scrofa; conditions: in vivo, 1.5 h
[2] = Drug uptake in Danish Landrace pig cortex at 124 MBq, iv after 90 mins by PET analysis; format: ADME, organism-based, Sus scrofa; conditions: in vivo, 1.5 h
[3] = Drug uptake in Danish Landrace pig hippocampus at 124 MBq, iv after 90 mins by PET analysis; format: ADME, organism-based, Sus scrofa; conditions: in vivo, 1.5 h
[4] = Drug uptake in Danish Landrace pig brain at 124 MBq, iv after 60 mins by PET analysis; format: ADME, organism-based, Sus scrofa; conditions: in vivo, 1 h
[5] = Drug uptake in Danish Landrace pig thalamus at 124 MBq, iv after 90 mins by PET analysis; format: ADME, organism-based, Sus scrofa; conditions: in vivo, 1.5 h
[6] = Plasma protein binding in pig plasma at 5 MBq after 2.5 hrs by equilibrium dialysis chamber method; format: ADME, cell-free, Sus scrofa; conditions: read-out: PPB (converted)
[7] = Drug uptake in Danish Landrace pig striatum at 124 MBq, iv after 90 mins by PET analysis; format: ADME, organism-based, Sus scrofa; conditions: in vivo, 1.5 h

Cc1ccc(Sc2ccccc2N2CCNCC2)c([11CH3])c1
Drug uptake [1]: Active
Drug uptake [2]: Active
Drug uptake [3]: Active
Drug uptake [4]: Active
Drug uptake [5]: Active
fraction unbound at 2.5 h, 5 MBq [6]: 0.02
Drug uptake [7]: Active
